The record followed here is patent publication US7439380B2, “Diarylbutadiene-substituted diorganopolysiloxanes and photoprotective compositions comprised thereof” (L'Oreal, priority 2003, dated 2008).

This series in a line: UV absorption spectrum in ethanol. Format: physicochemical. The conditions noted are these: for UV E1% / UV εmax: at λmax.

As to `CCOC(=O)/C(=C/C=C(c1ccccc1)c1ccccc1)C(=O)OCC(C)C[Si](C)(O[Si](C)(C)C)O[Si](C)(C)C` (stereo not drawn) [Example 1, monoethyl mono-3-[1,3,3,3-tetramethyl-1-[(trimethylsilyl)oxy]disiloxanyl]-2-methylpropyl 2-(3,3-diphenylprop-2-enylene)malonate], the “UV λmax” value was determined as 333 nm, the “UV E1%” value was determined as 660 and the “UV εmax” value is 39 530.
The corresponding values for `C[Si](C)(C)O[Si](C)(CCCOC(=O)/C(C#N)=C\C=C(c1ccccc1)c1ccccc1)O[Si](C)(C)C` [Example 3, 3-[1,3,3,3-tetramethyl-1-[(trimethylsilyl)oxy]disiloxanyl]propyl 2-cyano-5,5-diphenylpenta-2,4-dienoate] are 358 nm, 574 and 30 874.
The corresponding values for `C[Si](C)(C)O[Si](C)(CCCNC(=O)/C(C#N)=C/C=C(c1ccccc1)c1ccccc1)O[Si](C)(C)C` [Example 5, N-[3-[1,3,3,3-tetramethyl-1-[(trimethylsilyl)oxy]disiloxanyl]propyl]-2-cyano-5,6-diphenylpenta-2,4-dienamide] are 351 nm, 515 and 27 650.
The corresponding values for `CC(COC(=O)C(=CC=C(c1ccccc1)c1ccccc1)C(=O)OCC(C)C[Si](C)(O[Si](C)(C)C)O[Si](C)(C)C)C[Si](C)(O[Si](C)(C)C)O[Si](C)(C)C` (stereo not drawn) [Example 6] are 330 nm, 346 and 28 650.
`CCOC(=O)/C(=C\C=C(c1ccccc1)c1ccccc1)C(=O)NCCC[Si](C)(O[Si](C)(C)C)O[Si](C)(C)C` [Example 7, ethyl 4,4-diphenyl-1,3-diene-N-[3-[1,3,3,3-tetramethyl-1-[(trimethylsilyl)oxy]disiloxanyl]propyl]-2-(4,4-diphenylprop-2-ethylene)malonamide]: the “UV λmax” value is listed as 335 nm, the “UV E1%” value amounted to 542 and the “UV εmax” value is recorded as 31 650.
